These results are taken from publication PMC2680345 (Journal of Antimicrobial Chemotherapy, 2009).

For data set [1] the following is noted: for θ2 (factor associated with the covariate) / θ1 (typical value of V/F) / θ1 (typical value of ka): univariate model.
The conditions of data set [2]: cited from earlier work.
The next data set in a line: clinical. Conditions: both, human, in vivo.
A further data set is described as follows: Plasma concentrations. Format: in vivo. The note with it: human, oral, ritonavir AUC0–24, median, external dataset, 18 HIV-infected patients, atazanavir/ritonavir/saquinavir 200/100/1600 mg once daily.
Setting [3] is: final model, 300/100 mg once daily.
[4] abbreviates: influence of Black-African ethnicity on V/F: V = θ1 * θ2^AFR.
[5] abbreviates: influence of Black-African ethnicity on ka: ka = θ1 * θ2^AFR.
The mark [6] stands for this setting: influence of HIV status on V/F: V = θ1 * θ2^HIV.
Setting [7] is: influence of HIV status on ka: ka = θ1 * θ2^HIV.
The mark [8] stands for this setting: influence of Hispanic ethnicity on ka: ka = θ1 * θ2^HSP.
The mark [9] stands for this setting: influence of RTV AUC0–24 on V/F: V = θ1 * (RTV/7.52)^θ2.
The mark [10] stands for this setting: influence of SQV on V/F: V = θ1 * θ2^SQV.
Setting [11] is: influence of TDF on V/F: V = θ1 * θ2^TDF.
The mark [12] stands for this setting: influence of TDF on ka: ka = θ1 * θ2^TDF.
[13] abbreviates: influence of sex on V/F: V = θ1 * θ2^SEX.
Where [14] appears, read: influence of weight on V/F: V = θ1 + θ2 * (WT − 76.2).

Molecules are shown by their SMILES. Read-outs that look alike come from different tables or passages of the source.

What is called half-life is how long it takes for the measured level to halve. In general, Vd/F refers to the volume of distribution divided by bioavailability. Take `COC(=O)N[C@H](C(=O)N[C@@H](Cc1ccccc1)[C@@H](O)CN(Cc1ccc(-c2ccccn2)cc1)NC(=O)[C@@H](NC(=O)OC)C(C)(C)C)C(C)(C)C` [atazanavir, Atazanavir]: the “IIV CL/F (inter-individual variability)” value in data set [1] (basic model) is given as 48%; in data set [1] (setting [3]), 29%. In addition, the “IIV V/F (inter-individual variability)” value in data set [1] (basic model) and in data set [1] (setting [3]) was 48% each time. The “IIV ka (inter-individual variability)” value in data set [1] (basic model) and in data set [1] (setting [3]) was 154% each time. Moreover, the “CL/F (apparent oral clearance)” value in data set [1] (basic model (no covariates), 300/100 mg once daily) is recorded as 7.6 L/h. Further, the “mean individual predicted CL/F” value in data set [1] (females) is 6.40 L/h; in data set [1] (males) it was 8.99 L/h. Besides, the “reduction of variability of CL/F by inclusion of ritonavir AUC0–24 as covariate” value in data set [1] (final versus basic model) is listed as 19%. Moreover, the “lower mean individual predicted CL/F in females compared with males” value in data set [1] (not significant) is recorded as roughly 29%. Besides, the “θ2 (factor associated with the covariate)” value in data set [1] (influence of Black-African ethnicity on CL/F: CL = θ1 * θ2^AFR) is listed as 0.91; in data set [1] (setting [4]), 1.23; in data set [1] (setting [5]), 1.44; in data set [1] (influence of HIV status on CL/F: CL = θ1 * θ2^HIV) it was 0.80; in data set [1] (setting [6]), 0.81; in data set [1] (setting [7]), 1.42. The “θ2 (factor associated with the covariate)” value in data set [1] (influence of Hispanic ethnicity on CL/F: CL = θ1 * θ2^HSP) is on record as 1.60; in data set [1] (setting [8]) it was 4.42; in data set [1] (influence of RTV AUC0–24 on CL/F: CL = θ1 * (RTV/7.52)^θ2), −0.84; in data set [1] (setting [9]), −0.50; in data set [1] (influence of SQV (1600 mg once daily) on CL/F: CL = θ1 * θ2^SQV), 0.67; in data set [1] (setting [10]), 0.64. For the same molecule, the “θ2 (factor associated with the covariate)” value is listed as 0.83 in data set [1] (influence of TDF (300 mg once daily) on CL/F: CL = θ1 * θ2^TDF); 0.71 in data set [1] (setting [11]); 1.10 in data set [1] (setting [12]); 0.77 in data set [1] (influence of sex on CL/F: CL = θ1 * θ2^SEX); 1.26 in data set [1] (setting [13]); 0.13 in data set [1] (influence of weight on CL/F: CL = θ1 + θ2 * (WT − 76.2)). Also, the “θ2 (factor associated with the covariate)” value in data set [1] (setting [14]) amounted to 1.26. In addition, the “θ1 (typical value of V/F)” value in data set [1] (setting [4]) is on record as 100; in data set [1] (setting [6]) it was 118; in data set [1] (setting [9]), 104; in data set [1] (setting [10]) it was 123; in data set [1] (setting [11]), 108; in data set [1] (setting [13]), 98.7. In addition, in data set [1] (setting [14]), the “θ1 (typical value of V/F)” value worked out at 105. For the same molecule, the “θ1 (typical value of ka)” value in data set [1] (setting [5]) amounted to 3.28; in data set [1] (setting [7]), 2.77; in data set [1] (setting [8]), 2.81; in data set [1] (setting [12]), 3.43. For the same molecule, the “AUC0–24 lower in HIV patients compared with healthy individuals” value in data set [2] is recorded as roughly 20%. Moreover, the “minimum concentrations lower in HIV patients compared with healthy individuals” value in data set [2] was roughly 50%. For the same molecule, in data set [2], the “peak concentrations lower in HIV patients compared with healthy individuals” value is reported as roughly 30%. In data set [2] (population analysis by Colombo et al.), the half-life is reported as 8.8 h. In “clinical”, this molecule had a Vd/F of 103 L.

Broadly, the AUC(0-t) is exposure summed from dosing to a finite time, without extrapolation to infinity. Low values mean less exposure, high ones more exposure. On to `CC(C)c1nc(CN(C)C(=O)N[C@H](C(=O)N[C@@H](Cc2ccccc2)C[C@H](O)[C@H](Cc2ccccc2)NC(=O)OCc2cncs2)C(C)C)cs1` [ritonavir], for which the AUC(0-t) in “Plasma concentrations” was determined as 9060 ng·h/mL.
